One series deals with PDE1C (Homo sapiens (Human), UniProt Q14123). In words: PDE inhibition, recombinant PDE1C. It counts as biochemical.
Another series has as its target PDE2A (Homo sapiens (Human), UniProt O00408). In words: PDE inhibition, recombinant PDE2A. It counts as biochemical. The text has this: (§1) Recombinant PDE1C (GenBank/EMBL Accession Number: NM_005020, Loughney et al. J. Biol. Chem. 1996 271, 796-806), PDE2A (GenBank/EMBL Accession Number: NM_002599, Rosman et al. Gene 1997 191, 89-95), PDE3B (GenBank/EMBL Accession Number: NM_000922, Miki et al. Genomics 1996, 36, 476-485), PDE4B (GenBank/EMBL Accession Number: NM_002600, Obernolte et al. Gene. 1993, 129, 239-247), PDE5A (GenBank/EMBL Accession Number: NM_001083, Loughney et al. Gene 1998, 216, 139-147), PDE7B (GenBank/EMBL Accession Number: NM_018945, Hetman et al. Proc. Natl. Acad. Sci. U.S.A. 2000, 97, 472-476), PDE8A (GenBank/EMBL Accession Number. AF—056490, Fisher et al. Biochem. Biophys. Res. Commun. […]
(§2) The test substances are dissolved in 100% DMSO and serially diluted to determine their in vitro effect on PDE 9A. […] The plates are then measured for 30 s per well in a Microbeta scintillation counter (Wallac Inc., Atlanta, Ga.). IC50 values are determined from the graphical plot of the substance concentration versus the percentage inhibition.
(§3) The in vitro effect of test substances on recombinant PDE3B, PDE4B, PDE7B, PDE8A, PDE10A and PDE11A is determined in accordance with the assay protocol described above for PDE9A with the following adaptations: [5′,8-^3H] adenosine 3′,5′-cyclic phosphate (1 μCi/μL; Amersham Pharmacia Biotech., Piscataway, N.J.) is used as substrate. […]

The next series concerns the target PDE3B (Homo sapiens (Human), UniProt Q13370). In words: PDE inhibition, recombinant PDE3B. It counts as biochemical.
Description: as §1, §2, §3

The target of another series is PDE4B (Homo sapiens, UniProt Q07343). As to the kind of experiment: PDE inhibition, recombinant PDE4B. It counts as biochemical. The procedure:
The test substances are dissolved in 100% DMSO and serially diluted to determine their in vitro effect on PDE 9A. […] 2 μL portions of the diluted substance solutions are introduced into the wells of microtiter plates (Isoplate; Wallac Inc., Atlanta, Ga.). Then 50 μL of a dilution of the PDE9A preparation described above are added. […] The substrate, [8-^3H] guanosine 3′,5′-cyclic phosphate (1 μCi/μL; Amersham Pharmacia Biotech., Piscataway, N.J.) is diluted 1:2000 with assay buffer (50 mM Tris/HCl pH 7.5, 8.3 mM MgCl2, 1.7 mM EDTA) to a concentration of 0.0005 μCi/μL. The enzyme reaction is finally started by adding 50 μL (0.025 μCi) of the diluted substrate. […] Immediately thereafter, 25 μL of a suspension containing 18 mg/mL Yttrium Scintillation Proximity Beads (Amersham Pharmacia Biotech., Piscataway, N.J.) are added. […] The plates are then measured for 30 s per well in a Microbeta scintillation counter (Wallac Inc., Atlanta, Ga.). IC50 values are determined from the graphical plot of the substance concentration versus the percentage inhibition.
The in vitro effect of test substances on recombinant PDE3B, PDE4B, PDE7B, PDE8A, PDE10A and PDE11A is determined in accordance with the assay protocol described above for PDE9A with the following adaptations: [5′,8-^3H] adenosine 3′,5′-cyclic phosphate (1 μCi/μL; Amersham Pharmacia Biotech., Piscataway, N.J.) is used as substrate.

The next series deals with PDE5A (Homo sapiens (Human), UniProt O76074). As to the kind of experiment: PDE inhibition, recombinant PDE5A. It counts as biochemical.
Description: as §1, §2, §3

The target of a further series is PDE7B (Homo sapiens (Human), UniProt Q9NP56). In words: PDE inhibition, recombinant PDE7B. It counts as biochemical.
Chain of PDE7B (Q9NP56 whole entry): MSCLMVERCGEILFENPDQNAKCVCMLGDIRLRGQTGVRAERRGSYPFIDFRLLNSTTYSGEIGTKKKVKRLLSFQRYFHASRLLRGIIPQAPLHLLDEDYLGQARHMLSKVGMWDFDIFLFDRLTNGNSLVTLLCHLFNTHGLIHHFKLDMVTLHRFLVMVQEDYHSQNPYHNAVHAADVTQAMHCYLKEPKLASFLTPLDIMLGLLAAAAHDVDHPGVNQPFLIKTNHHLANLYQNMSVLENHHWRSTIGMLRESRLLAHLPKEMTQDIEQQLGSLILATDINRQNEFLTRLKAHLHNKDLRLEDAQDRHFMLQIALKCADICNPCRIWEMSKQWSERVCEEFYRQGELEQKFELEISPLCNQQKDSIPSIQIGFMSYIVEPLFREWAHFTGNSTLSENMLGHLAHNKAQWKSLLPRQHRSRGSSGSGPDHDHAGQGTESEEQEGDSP
Description: as §1, §2, §3

A further series has as its target PDE8A (Homo sapiens (Human), UniProt O60658). In words: PDE inhibition, recombinant PDE8A. It counts as biochemical.
Description: as §1, §2, §3

A further series deals with PDE9A (Homo sapiens (Human), UniProt O76083). As to the kind of experiment: PDE inhibition, recombinant PDE9A. It counts as biochemical. On the procedure: The test substances are dissolved in 100% DMSO and serially diluted to determine their in vitro effect on PDE 9A. […] 2 μL portions of the diluted substance solutions are introduced into the wells of microtiter plates (Isoplate; Wallac Inc., Atlanta, Ga.). Then 50 μL of a dilution of the PDE9A preparation described above are added. […] The substrate, [8-^3H] guanosine 3′,5′-cyclic phosphate (1 μCi/μL; Amersham Pharmacia Biotech., Piscataway, N.J.) is diluted 1:2000 with assay buffer (50 mM Tris/HCl pH 7.5, 8.3 mM MgCl2, 1.7 mM EDTA) to a concentration of 0.0005 μCi/μL. The enzyme reaction is finally started by adding 50 μL (0.025 μCi) of the diluted substrate. […] Immediately thereafter, 25 μL of a suspension containing 18 mg/mL Yttrium Scintillation Proximity Beads (Amersham Pharmacia Biotech., Piscataway, N.J.) are added. The microliter plates are sealed with a film and left to stand at room temperature for 60 min. The plates are then measured for 30 s per well in a Microbeta scintillation counter (Wallac Inc., Atlanta, Ga.). IC50 values are determined from the graphical plot of the substance concentration versus the percentage inhibition.
Chain of PDE9A (O76083 whole entry): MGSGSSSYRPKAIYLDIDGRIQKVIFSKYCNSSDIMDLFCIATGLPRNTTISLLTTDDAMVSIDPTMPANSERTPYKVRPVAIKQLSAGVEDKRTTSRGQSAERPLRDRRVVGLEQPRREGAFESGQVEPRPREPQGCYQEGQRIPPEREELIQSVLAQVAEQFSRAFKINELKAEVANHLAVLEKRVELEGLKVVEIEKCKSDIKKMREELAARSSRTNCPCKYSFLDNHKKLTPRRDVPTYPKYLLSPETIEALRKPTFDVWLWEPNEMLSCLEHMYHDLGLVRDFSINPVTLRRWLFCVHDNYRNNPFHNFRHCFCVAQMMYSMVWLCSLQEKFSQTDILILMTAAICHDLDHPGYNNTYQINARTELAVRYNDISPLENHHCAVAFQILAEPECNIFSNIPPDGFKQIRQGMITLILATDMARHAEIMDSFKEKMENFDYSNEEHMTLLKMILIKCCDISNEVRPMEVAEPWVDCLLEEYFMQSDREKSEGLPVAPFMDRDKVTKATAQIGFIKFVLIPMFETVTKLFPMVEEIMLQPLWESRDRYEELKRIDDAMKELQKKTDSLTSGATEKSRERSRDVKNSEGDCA

Another series deals with PDE10A (Homo sapiens (Human), UniProt Q9Y233). In words: PDE inhibition, recombinant PDE10A. It counts as biochemical.
Chain of PDE10A (Q9Y233 other isoform, or with tags, fused parts or gaps): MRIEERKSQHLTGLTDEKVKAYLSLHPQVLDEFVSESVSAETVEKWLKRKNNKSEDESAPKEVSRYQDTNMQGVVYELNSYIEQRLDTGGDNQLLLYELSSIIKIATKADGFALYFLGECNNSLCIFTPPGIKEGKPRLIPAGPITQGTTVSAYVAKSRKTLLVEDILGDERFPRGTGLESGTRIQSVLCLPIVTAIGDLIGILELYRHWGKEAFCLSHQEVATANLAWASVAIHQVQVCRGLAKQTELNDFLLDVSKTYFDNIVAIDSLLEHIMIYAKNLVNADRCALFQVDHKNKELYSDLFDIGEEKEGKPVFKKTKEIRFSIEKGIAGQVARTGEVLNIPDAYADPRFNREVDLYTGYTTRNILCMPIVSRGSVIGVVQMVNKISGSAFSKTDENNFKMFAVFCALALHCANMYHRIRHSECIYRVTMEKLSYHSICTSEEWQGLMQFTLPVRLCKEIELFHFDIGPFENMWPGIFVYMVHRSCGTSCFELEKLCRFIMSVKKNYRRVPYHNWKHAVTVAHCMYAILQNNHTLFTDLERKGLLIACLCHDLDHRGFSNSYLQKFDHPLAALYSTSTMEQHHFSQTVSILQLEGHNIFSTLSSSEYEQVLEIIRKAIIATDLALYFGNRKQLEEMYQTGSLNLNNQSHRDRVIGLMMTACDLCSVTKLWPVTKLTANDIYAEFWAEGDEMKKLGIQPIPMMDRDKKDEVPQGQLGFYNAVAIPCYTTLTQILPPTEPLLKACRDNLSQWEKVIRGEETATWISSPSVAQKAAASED
Description: as §1, §2, §3

SMILES strings stand for the structures.

Chain of PDE4B (Q07343 whole entry, looked up): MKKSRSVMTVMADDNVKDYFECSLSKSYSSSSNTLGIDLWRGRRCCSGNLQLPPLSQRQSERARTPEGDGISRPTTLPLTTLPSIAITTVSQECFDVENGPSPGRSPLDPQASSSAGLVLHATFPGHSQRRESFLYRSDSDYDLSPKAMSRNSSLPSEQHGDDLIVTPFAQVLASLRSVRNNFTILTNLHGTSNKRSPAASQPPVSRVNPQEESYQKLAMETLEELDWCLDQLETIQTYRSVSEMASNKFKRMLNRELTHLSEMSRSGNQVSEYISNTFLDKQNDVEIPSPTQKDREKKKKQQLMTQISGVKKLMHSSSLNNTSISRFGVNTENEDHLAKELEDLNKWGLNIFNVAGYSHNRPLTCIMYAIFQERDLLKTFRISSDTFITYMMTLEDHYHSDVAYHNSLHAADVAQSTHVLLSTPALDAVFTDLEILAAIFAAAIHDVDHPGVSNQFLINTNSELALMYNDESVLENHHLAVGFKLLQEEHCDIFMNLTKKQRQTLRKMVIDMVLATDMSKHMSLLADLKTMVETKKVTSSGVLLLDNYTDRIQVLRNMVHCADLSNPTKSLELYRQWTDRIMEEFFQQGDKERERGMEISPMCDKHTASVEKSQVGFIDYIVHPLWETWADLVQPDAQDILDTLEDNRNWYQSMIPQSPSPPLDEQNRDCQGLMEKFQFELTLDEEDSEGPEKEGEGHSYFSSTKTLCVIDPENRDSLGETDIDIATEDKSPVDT
Chain of PDE8A (O60658 117-829): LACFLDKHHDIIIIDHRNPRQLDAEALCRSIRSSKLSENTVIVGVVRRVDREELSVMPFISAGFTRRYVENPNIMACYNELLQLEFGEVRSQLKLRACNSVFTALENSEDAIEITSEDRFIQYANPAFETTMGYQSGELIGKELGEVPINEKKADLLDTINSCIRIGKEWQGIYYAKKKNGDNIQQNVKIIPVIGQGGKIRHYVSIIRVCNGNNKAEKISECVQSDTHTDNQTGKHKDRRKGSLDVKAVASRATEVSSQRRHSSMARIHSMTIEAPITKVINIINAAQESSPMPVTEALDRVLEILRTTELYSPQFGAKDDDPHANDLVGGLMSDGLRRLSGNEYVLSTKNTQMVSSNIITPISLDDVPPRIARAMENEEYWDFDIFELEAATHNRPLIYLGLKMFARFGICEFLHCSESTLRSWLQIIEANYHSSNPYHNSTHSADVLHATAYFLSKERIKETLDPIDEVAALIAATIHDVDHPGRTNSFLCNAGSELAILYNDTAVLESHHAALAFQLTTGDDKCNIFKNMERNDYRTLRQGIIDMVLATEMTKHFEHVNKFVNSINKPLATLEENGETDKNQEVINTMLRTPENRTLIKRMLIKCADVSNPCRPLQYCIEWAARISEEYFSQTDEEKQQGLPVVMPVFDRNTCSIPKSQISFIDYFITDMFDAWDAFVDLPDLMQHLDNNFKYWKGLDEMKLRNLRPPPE
Chain of PDE2A (O00408 whole entry): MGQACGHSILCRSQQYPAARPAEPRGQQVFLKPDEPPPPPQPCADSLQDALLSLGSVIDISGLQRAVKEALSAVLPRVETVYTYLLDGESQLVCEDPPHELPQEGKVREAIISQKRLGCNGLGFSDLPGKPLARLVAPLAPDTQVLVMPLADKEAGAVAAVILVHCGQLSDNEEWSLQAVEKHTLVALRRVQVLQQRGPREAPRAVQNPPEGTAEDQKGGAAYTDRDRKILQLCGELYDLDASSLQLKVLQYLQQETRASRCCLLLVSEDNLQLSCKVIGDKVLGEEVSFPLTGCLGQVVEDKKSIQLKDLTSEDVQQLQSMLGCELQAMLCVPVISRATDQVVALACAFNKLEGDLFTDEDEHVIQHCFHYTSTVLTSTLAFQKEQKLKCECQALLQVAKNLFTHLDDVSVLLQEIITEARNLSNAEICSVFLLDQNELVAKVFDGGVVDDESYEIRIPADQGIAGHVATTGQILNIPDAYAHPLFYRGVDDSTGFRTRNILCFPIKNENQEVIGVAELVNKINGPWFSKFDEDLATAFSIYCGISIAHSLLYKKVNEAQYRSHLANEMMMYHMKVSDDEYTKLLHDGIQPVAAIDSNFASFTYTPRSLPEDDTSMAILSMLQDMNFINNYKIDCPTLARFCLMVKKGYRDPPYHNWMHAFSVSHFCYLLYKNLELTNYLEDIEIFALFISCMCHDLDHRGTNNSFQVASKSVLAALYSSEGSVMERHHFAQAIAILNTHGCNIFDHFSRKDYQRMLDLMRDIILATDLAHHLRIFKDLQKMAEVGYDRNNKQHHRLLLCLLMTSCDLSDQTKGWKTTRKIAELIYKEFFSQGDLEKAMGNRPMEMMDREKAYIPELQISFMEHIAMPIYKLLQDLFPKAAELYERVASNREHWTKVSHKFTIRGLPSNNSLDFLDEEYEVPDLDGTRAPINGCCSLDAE

In general, IC50 refers to the point on the concentration scale where inhibition reaches its midpoint. In general, melting point refers to the temperature of the solid-liquid transition. In turn, `CCC(CC)n1ncc2c(=O)[nH]c(CC3CCCCC3)nc21` [Example 3, 6-(Cyclohexylmethyl)-1-(1-ethylpropyl)-1,5-dihydro-4H-pyrazolo[3,4-d]pyrimidin-4-one] had a melting point of 122 °C. On PDE1C, the IC50 came to 0.72 µM. Also, the IC50 on PDE2A was over 4 µM. The IC50 at PDE3B is over 4 µM. At PDE4B, the IC50 was over 4 µM. In addition, on PDE5A, the IC50 is over 4 µM. For the same molecule, the IC50 at PDE7B is over 4 µM. Moreover, on PDE8A, the IC50 is over 4 µM. The IC50 on PDE9A is 0.11 µM. Also, the IC50 at PDE10A was over 4 µM.
